PubChem BioAssay AID1745844 (Carcinogenic Potency Database (CPDB), 2022)
Calls of active or inactive are those of the source. How the calls were made is not given here.

Tested on: rodent lifetime carcinogenesis bioassay, tumor incidence TD50
Assay: chronic cancer bioassays in animals – CPDB, compiled studies (AID 1745844)
Conditions: for TD50: in feed, dosed 103 weeks

## N=C1C=CC(=C(c2ccc(N)cc2)c2ccc(N)cc2)C=C1
hamster, strain Syrian Golden, females, by gavage, site: any site (literature study), lesion: several types, types named in the paper, dosed 84 weeks, study length 84 weeks
  carcinogen call: negative (inactive)
hamster, strain Syrian Golden, males, by gavage, site: any site (literature study), lesion: several types, types named in the paper, dosed 84 weeks, study length 84 weeks
  carcinogen call: negative (inactive)
mouse, strain B6C3F1, females, site: Harderian gland, lesion: adenoma, NOS + carcinoma, NOS + cystadenoma, NOS, study length 105 weeks
  TD50: 388 mg/kg/day
mouse, strain B6C3F1, females, site: Harderian gland, lesion: adenoma, NOS + cystadenoma, NOS, study length 105 weeks
  TD50: 316 mg/kg/day
mouse, strain B6C3F1, females, site: Harderian gland, lesion: adenoma, study length 105 weeks
  TD50: 548 mg/kg/day
mouse, strain B6C3F1, females, site: adrenal gland + liver, lesion: pheochromocytoma + pheochromocytoma, malignant + hepatocellular carcinoma, study length 105 weeks
  TD50: 28.8 mg/kg/day
mouse, strain B6C3F1, females, site: adrenal gland, lesion: pheochromocytoma + pheochromocytoma, malignant, study length 105 weeks
  TD50: 90.6 mg/kg/day
mouse, strain B6C3F1, females, site: all sites, lesion: malignant lymphoma, histiocytic type + malignant lymphoma, mixed type + malignant lymphoma, lymphocytic type + malignant lymph, study length 105 weeks
  TD50: 62.2 mg/kg/day
mouse, strain B6C3F1, females, site: all sites, lesion: malignant lymphoma, histiocytic type, study length 105 weeks
  TD50: 380 mg/kg/day
mouse, strain B6C3F1, females, site: all sites, lesion: malignant lymphoma, lymphocytic type, study length 105 weeks
  TD50: 151 mg/kg/day
mouse, strain B6C3F1, females, site: any site (literature study), lesion: several types, types named in the paper, study length 105 weeks
  TD50: 23.4 mg/kg/day
mouse, strain B6C3F1, females, site: liver, lesion: hepatocellular adenoma + hepatocellular carcinoma + neoplastic nodule, study length 105 weeks
  TD50: 20.3 mg/kg/day
mouse, strain B6C3F1, females, site: liver, lesion: hepatocellular adenoma + hepatocellular carcinoma, study length 105 weeks
  TD50: 20.3 mg/kg/day
mouse, strain B6C3F1, females, site: liver, lesion: hepatocellular adenoma, study length 105 weeks
  TD50: 35.9 mg/kg/day
mouse, strain B6C3F1, females, site: liver, lesion: hepatocellular carcinoma, study length 105 weeks
  TD50: 32.3 mg/kg/day
mouse, strain B6C3F1, females, site: lung, lesion: alveolar/bronchiolar adenoma + alveolar/bronchiolar carcinoma, study length 105 weeks
  TD50: 302 mg/kg/day
mouse, strain B6C3F1, females, site: lung, lesion: alveolar/bronchiolar adenoma, study length 105 weeks
  TD50: 326 mg/kg/day
mouse, strain B6C3F1, males, site: all sites, lesion: malignant lymphoma, mixed type, study length 104 weeks
  TD50: 610 mg/kg/day
mouse, strain B6C3F1, males, site: any site (literature study), lesion: several types, types named in the paper, study length 104 weeks
  TD50: 222 mg/kg/day
mouse, strain B6C3F1, males, site: liver, lesion: hepatocellular adenoma + hepatocellular carcinoma + neoplastic nodule, study length 104 weeks
  TD50: 116 mg/kg/day
mouse, strain B6C3F1, males, site: liver, lesion: hepatocellular adenoma + hepatocellular carcinoma, study length 104 weeks
  TD50: 116 mg/kg/day
mouse, strain B6C3F1, males, site: liver, lesion: hepatocellular carcinoma, study length 104 weeks
  TD50: 127 mg/kg/day
rat, strain Fischer 344, females, site: Zymbal's gland, lesion: carcinoma, NOS, study length 104 weeks
  TD50: 190 mg/kg/day
rat, strain Fischer 344, females, site: any site (literature study), lesion: several types, types named in the paper, study length 104 weeks
  TD50: 17.8 mg/kg/day
rat, strain Fischer 344, females, site: liver, lesion: hepatocellular adenoma + hepatocellular carcinoma + neoplastic nodule, study length 104 weeks
  TD50: 189 mg/kg/day
rat, strain Fischer 344, females, site: liver, lesion: hepatocellular carcinoma + neoplastic nodule, study length 104 weeks
  TD50: 189 mg/kg/day
rat, strain Fischer 344, females, site: mammary gland, lesion: adenocarcinoma, NOS + adenoma, NOS + fibroadenoma, study length 104 weeks
  TD50: 25.4 mg/kg/day
rat, strain Fischer 344, females, site: mammary gland, lesion: adenocarcinoma, NOS + adenoma, NOS, study length 104 weeks
  TD50: 156 mg/kg/day
rat, strain Fischer 344, females, site: mammary gland, lesion: adenocarcinoma, NOS, study length 104 weeks
  TD50: 232 mg/kg/day
rat, strain Fischer 344, females, site: mammary gland, lesion: fibroadenoma, study length 104 weeks
  TD50: 27.9 mg/kg/day
rat, strain Fischer 344, females, site: subcutaneous tissue + thyroid gland + Zymbal's gland, lesion: fibroma + follicular-cell adenoma + follicular-cell carcinoma + carcinoma, NOS, study length 104 weeks
  TD50: 32.2 mg/kg/day
rat, strain Fischer 344, females, site: subcutaneous tissue, lesion: fibroma, study length 104 weeks
  TD50: 44.5 mg/kg/day
rat, strain Fischer 344, females, site: subcutaneous tissue, lesion: fibrosarcoma + fibroma + sarcoma, NOS, study length 104 weeks
  TD50: 40.9 mg/kg/day
rat, strain Fischer 344, females, site: subcutaneous tissue, lesion: fibrosarcoma + fibroma, study length 104 weeks
  TD50: 42.8 mg/kg/day
rat, strain Fischer 344, females, site: thyroid gland, lesion: follicular-cell adenoma + follicular-cell carcinoma, study length 104 weeks
  TD50: 154 mg/kg/day
rat, strain Fischer 344, females, site: thyroid gland, lesion: follicular-cell adenoma, study length 104 weeks
  TD50: 318 mg/kg/day
rat, strain Fischer 344, females, site: uterus, lesion: endometrial stromal sarcoma, study length 104 weeks
  TD50: 133 mg/kg/day
rat, strain Fischer 344, males, site: Zymbal's gland, lesion: carcinoma, NOS, study length 104 weeks
  TD50: 124 mg/kg/day
rat, strain Fischer 344, males, site: any site (literature study), lesion: several types, types named in the paper, study length 104 weeks
  TD50: 15.7 mg/kg/day
rat, strain Fischer 344, males, site: body cavities + multiple sites + multiple organs + tunica vaginalis, lesion: mesothelioma, NOS + mesothelioma, malignant, study length 104 weeks
  TD50: 184 mg/kg/day
rat, strain Fischer 344, males, site: liver + skin + subcutaneous tissue + thyroid gland + Zymbal's gland, lesion: hepatocellular carcinoma + sebaceous adenoma + squamous-cell carcinoma + trichoepithelioma + fibroma + follicular-cell adenoma + fol, study length 104 weeks
  TD50: 21.2 mg/kg/day
rat, strain Fischer 344, males, site: liver, lesion: bile duct adenoma + bile duct carcinoma, study length 104 weeks
  TD50: 557 mg/kg/day
rat, strain Fischer 344, males, site: liver, lesion: hepatocellular adenoma + hepatocellular carcinoma + neoplastic nodule, study length 104 weeks
  TD50: 41.5 mg/kg/day
rat, strain Fischer 344, males, site: liver, lesion: hepatocellular carcinoma + neoplastic nodule, study length 104 weeks
  TD50: 41.5 mg/kg/day
rat, strain Fischer 344, males, site: liver, lesion: hepatocellular carcinoma, study length 104 weeks
  TD50: 140 mg/kg/day
rat, strain Fischer 344, males, site: liver, lesion: neoplastic nodule, study length 104 weeks
  TD50: 62.2 mg/kg/day
rat, strain Fischer 344, males, site: lung, lesion: alveolar/bronchiolar adenoma + alveolar/bronchiolar carcinoma, study length 104 weeks
  TD50: 254 mg/kg/day
rat, strain Fischer 344, males, site: lung, lesion: alveolar/bronchiolar adenoma, study length 104 weeks
  TD50: 281 mg/kg/day
rat, strain Fischer 344, males, site: pancreatic islets, lesion: islet-cell adenoma + islet-cell carcinoma, study length 104 weeks
  TD50: 152 mg/kg/day
rat, strain Fischer 344, males, site: pancreatic islets, lesion: islet-cell carcinoma, study length 104 weeks
  TD50: 252 mg/kg/day
rat, strain Fischer 344, males, site: skin, lesion: basal-cell carcinoma, study length 104 weeks
  TD50: 385 mg/kg/day
rat, strain Fischer 344, males, site: skin, lesion: sebaceous adenoma, study length 104 weeks
  TD50: 424 mg/kg/day
rat, strain Fischer 344, males, site: skin, lesion: squamous-cell carcinoma + squamous-cell papilloma, study length 104 weeks
  TD50: 93.8 mg/kg/day
rat, strain Fischer 344, males, site: skin, lesion: squamous-cell carcinoma, study length 104 weeks
  TD50: 130 mg/kg/day
rat, strain Fischer 344, males, site: skin, lesion: trichoepithelioma, study length 104 weeks
  TD50: 221 mg/kg/day
rat, strain Fischer 344, males, site: subcutaneous tissue, lesion: fibroma, study length 104 weeks
  TD50: 35.3 mg/kg/day
rat, strain Fischer 344, males, site: subcutaneous tissue, lesion: fibrosarcoma + fibroma + sarcoma, NOS, study length 104 weeks
  TD50: 33.4 mg/kg/day
rat, strain Fischer 344, males, site: subcutaneous tissue, lesion: fibrosarcoma + fibroma, study length 104 weeks
  TD50: 33 mg/kg/day
rat, strain Fischer 344, males, site: testis, lesion: interstitial-cell tumor, study length 104 weeks
  TD50: 15.6 mg/kg/day
rat, strain Fischer 344, males, site: thyroid gland, lesion: follicular-cell adenoma + follicular-cell carcinoma, study length 104 weeks
  TD50: 57 mg/kg/day
rat, strain Fischer 344, males, site: thyroid gland, lesion: follicular-cell adenoma, study length 104 weeks
  TD50: 176 mg/kg/day
rat, strain Fischer 344, males, site: thyroid gland, lesion: follicular-cell carcinoma, study length 104 weeks
  TD50: 73.9 mg/kg/day
rat, strain Sprague-Dawley, females, by gavage, site: any site (literature study), lesion: several types, types named in the paper, dosed 127 weeks, study length 127 weeks
  carcinogen call: negative (inactive)
rat, strain Sprague-Dawley, males, by gavage, site: any site (literature study), lesion: several types, types named in the paper, dosed 124 weeks, study length 124 weeks
  carcinogen call: negative (inactive)

## CC[C@]1(O)C[C@@H]2CN(CCc3c([nH]c4ccccc34)[C@@](C(=O)OC)(c3cc4c(cc3OC)N(C)[C@H]3[C@@](O)(C(=O)OC)[C@H](OC(C)=O)[C@]5(CC)C=CCN6CC[C@]43[C@@H]65)C2)C1
rat, strain BR 46, males, i.v., site: any site (literature study), lesion: several types, types named in the paper, dosed 52 weeks, study length 104 weeks
  carcinogen call: negative (inactive)
